Reference: ChEMBL document CHEMBL1137659, “Molecular epidemiology of clinical isolates of carbapenem-resistant Acinetobacter spp. from Chinese hospitals” (2007)
In brackets after ≈: the same amount, converted by molar mass.

How the values were obtained:
Acinetobacter baumannii [1] = test: Antimicrobial activity against imipenem and meropenem-resistant Acinetobacter baumannii isolate PU4A22 by CLSI agar dilution method; type: functional
[2] = system: Acinetobacter genospecies 3; test: Antimicrobial activity against imipenem and meropenem-resistant Acinetobacter genospecies 3 isolate PUA7 by CLSI agar dilution method
Acinetobacter baumannii [3] = test: Antimicrobial activity against imipenem and meropenem-resistant Acinetobacter baumannii isolate BJ3-9 by CLSI agar dilution method; type: functional
[4] = system: Acinetobacter genospecies 10/11; test: Antimicrobial activity against imipenem and meropenem-resistant Acinetobacter genospecies 10/11 isolate ZS15 by CLSI agar dilution method
Acinetobacter baumannii [5] = test: Antimicrobial activity against imipenem and meropenem-resistant Acinetobacter baumannii isolate ZJ49 by CLSI agar dilution method; type: functional
Acinetobacter baumannii [6] = test: Antimicrobial activity against imipenem and meropenem-resistant Acinetobacter baumannii isolate PUA1 by CLSI agar dilution method; type: functional
[7] = system: Acinetobacter phenon 6/ct 13TU; test: Antimicrobial activity against imipenem and meropenem-resistant Acinetobacter phenon 6/ct 13TU isolate FZ4A18 by CLSI agar dilution method
Acinetobacter baumannii [8] = test: Antimicrobial activity against imipenem and meropenem-resistant Acinetobacter baumannii isolate BJ52 by CLSI agar dilution method; type: functional
[9] = system: Acinetobacter genospecies 13TU; test: Antimicrobial activity against imipenem and meropenem-resistant Acinetobacter genospecies 13TU isolate CY6 by CLSI agar dilution method
Acinetobacter baumannii [10] = test: Antimicrobial activity against imipenem and meropenem-resistant Acinetobacter baumannii isolate FZ84 by CLSI agar dilution method; type: functional
Acinetobacter baumannii [11] = test: Antimicrobial activity against imipenem and meropenem-resistant Acinetobacter baumannii isolate CY7 by CLSI agar dilution method; type: functional
[12] = system: Acinetobacter genospecies 3 (Acinetobacter genomosp. 3); test: Antimicrobial activity against imipenem and meropenem-resistant Acinetobacter genospecies 3 isolate PU78 by CLSI agar dilution method; settings: Acinetobacter genospecies 3, isolate PU78
Acinetobacter phenon 5 = test: Antimicrobial activity against imipenem and meropenem-resistant Acinetobacter phenon 5 isolate PUA6 by CLSI agar dilution method
Acinetobacter baumannii [13] = test: Antimicrobial activity against imipenem and meropenem-resistant Acinetobacter baumannii isolate NJ59 by CLSI agar dilution method; type: functional
Acinetobacter baumannii [14] = test: Antimicrobial activity against imipenem and meropenem-resistant Acinetobacter baumannii isolate JN45 by CLSI agar dilution method; type: functional
Acinetobacter baumannii [15] = test: Antimicrobial activity against imipenem and meropenem-resistant Acinetobacter baumannii isolate ZJ32 by CLSI agar dilution method; type: functional
[16] = system: Acinetobacter genospecies 10/11; test: Antimicrobial activity against imipenem and meropenem-resistant Acinetobacter genospecies 10/11 isolate ZS5 by CLSI agar dilution method
Acinetobacter baumannii [17] = test: Antimicrobial activity against imipenem and meropenem-resistant Acinetobacter baumannii isolate PU73 by CLSI agar dilution method; type: functional
Acinetobacter baumannii [18] = test: Antimicrobial activity against imipenem and meropenem-resistant Acinetobacter baumannii isolate BJ3-23 by CLSI agar dilution method; type: functional
Acinetobacter baumannii [19] = test: Antimicrobial activity against imipenem and meropenem-resistant Acinetobacter baumannii isolate FW-F1 by CLSI agar dilution method; type: functional
Acinetobacter baumannii [20] = test: Antimicrobial activity against imipenem and meropenem-resistant Acinetobacter baumannii isolate BJ55 by CLSI agar dilution method; type: functional
Acinetobacter baumannii [21] = test: Antimicrobial activity against imipenem and meropenem-resistant Acinetobacter baumannii isolate PU4A1 by CLSI agar dilution method; type: functional
Acinetobacter baumannii [22] = test: Antimicrobial activity against imipenem and meropenem-resistant Acinetobacter baumannii isolate DL34 by CLSI agar dilution method; type: functional
Acinetobacter baumannii [23] = test: Antimicrobial activity against imipenem and meropenem-resistant Acinetobacter baumannii isolate ZJ36 by CLSI agar dilution method; type: functional
Acinetobacter baumannii [24] = test: Antimicrobial activity against imipenem and meropenem-resistant Acinetobacter baumannii isolate ZJ58 by CLSI agar dilution method; type: functional
[25] = system: Acinetobacter phenon 6/ct 13TU (Acinetobacter sp.); test: Antimicrobial activity against imipenem and meropenem-resistant Acinetobacter phenon 6/ct 13TU isolate PU86 by CLSI agar dilution method
[26] = system: Acinetobacter genomosp. 3; test: Antimicrobial activity against imipenem and meropenem-resistant Acinetobacter genospecies 3 isolate PU78 by CLSI agar dilution method; settings: Acinetobacter genomosp. 3, isolate PU78
[27] = system: Acinetobacter genospecies 3; test: as above
[28] = system: Acinetobacter phenon 6/ct 13TU; test: Antimicrobial activity against imipenem and meropenem-resistant Acinetobacter phenon 6/ct 13TU isolate PU86 by CLSI agar dilution method

Compound	MIC (Acinetobacter baumannii [1])	MIC [2]	MIC (Acinetobacter baumannii [3])	MIC (Acinetobacter baumannii [5])	MIC (Acinetobacter baumannii [6])	MIC (Acinetobacter baumannii [8])	MIC [9]	MIC (Acinetobacter baumannii [10])	MIC (Acinetobacter baumannii [11])	MIC (Acinetobacter phenon 5)	MIC (Acinetobacter baumannii [13])	MIC (Acinetobacter baumannii [14])	MIC (Acinetobacter baumannii [15])	MIC [16]	MIC (Acinetobacter baumannii [17])	MIC (Acinetobacter baumannii [18])	MIC (Acinetobacter baumannii [19])	MIC (Acinetobacter baumannii [20])	MIC (Acinetobacter baumannii [21])	MIC (Acinetobacter baumannii [22])	further results
C[C@@H](O)[C@H]1C(=O)N2C(C(=O)O)=C(S[C@@H]3CN[C@H](C(=O)N(C)C)C3)[C@H](C)[C@H]12 [MEROPENEM]	128 µg/mL (≈ 334 µM)	32 µg/mL (≈ 83.4 µM)	32 µg/mL (≈ 83.4 µM)	32 µg/mL (≈ 83.4 µM)	64 µg/mL (≈ 167 µM)	32 µg/mL (≈ 83.4 µM)	32 µg/mL (≈ 83.4 µM)	16 µg/mL (≈ 41.7 µM)	64 µg/mL (≈ 167 µM)	64 µg/mL (≈ 167 µM)	16 µg/mL (≈ 41.7 µM)	16 µg/mL (≈ 41.7 µM)	32 µg/mL (≈ 83.4 µM)	128 µg/mL (≈ 334 µM)	64 µg/mL (≈ 167 µM)	64 µg/mL (≈ 167 µM)	64 µg/mL (≈ 167 µM)	32 µg/mL (≈ 83.4 µM)	64 µg/mL (≈ 167 µM)	32 µg/mL (≈ 83.4 µM)	MIC [4]: 64 µg/mL (≈ 167 µM); MIC [7]: 16 µg/mL (≈ 41.7 µM); MIC [12]: 32 µg/mL (≈ 83.4 µM); MIC (Acinetobacter baumannii [23]): 16 µg/mL (≈ 41.7 µM); MIC (Acinetobacter baumannii [24]): 32 µg/mL (≈ 83.4 µM); MIC [25]: 32 µg/mL (≈ 83.4 µM)
CN(C)c1ccc(O)c2c1C[C@H]1C[C@H]3[C@H](N(C)C)C(O)=C(C(N)=O)C(=O)[C@@]3(O)C(O)=C1C2=O [MINOCYCLINE]	2 µg/mL (≈ 4.37 µM)	0.5 µg/mL (≈ 1.09 µM)	4 µg/mL (≈ 8.74 µM)	32 µg/mL (≈ 69.9 µM)	4 µg/mL (≈ 8.74 µM)	8 µg/mL (≈ 17.5 µM)	0.25 µg/mL (≈ 0.546 µM)	4 µg/mL (≈ 8.74 µM)	0.5 µg/mL (≈ 1.09 µM)	0.5 µg/mL (≈ 1.09 µM)	4 µg/mL (≈ 8.74 µM)	0.5 µg/mL (≈ 1.09 µM)	16 µg/mL (≈ 35 µM)	8 µg/mL (≈ 17.5 µM)	8 µg/mL (≈ 17.5 µM)	8 µg/mL (≈ 17.5 µM)	2 µg/mL (≈ 4.37 µM)	16 µg/mL (≈ 35 µM)	2 µg/mL (≈ 4.37 µM)	8 µg/mL (≈ 17.5 µM)	MIC [4]: 0.25 µg/mL (≈ 0.546 µM); MIC [7]: 0.5 µg/mL (≈ 1.09 µM); MIC [26]: ≤ 0.125 µg/mL; MIC (Acinetobacter baumannii [23]): 32 µg/mL (≈ 69.9 µM); MIC (Acinetobacter baumannii [24]): 16 µg/mL (≈ 35 µM); MIC [25]: ≤ 0.125 µg/mL
CO[C@H]1/C=C/O[C@@]2(C)Oc3c(C)c(O)c4c(O)c(c(/C=N/N5CCN(C)CC5)c(O)c4c3C2=O)NC(=O)/C(C)=C\C=C\[C@H](C)[C@H](O)[C@@H](C)[C@@H](O)[C@@H](C)[C@H](OC(C)=O)[C@@H]1C [RIFAMPIN]	4 µg/mL (≈ 4.86 µM)	128 µg/mL (≈ 156 µM)	8 µg/mL (≈ 9.72 µM)	8 µg/mL (≈ 9.72 µM)	32 µg/mL (≈ 38.9 µM)	8 µg/mL (≈ 9.72 µM)	> 256 µg/mL	128 µg/mL (≈ 156 µM)	4 µg/mL (≈ 4.86 µM)	> 256 µg/mL	8 µg/mL (≈ 9.72 µM)	> 256 µg/mL	16 µg/mL (≈ 19.4 µM)	256 µg/mL (≈ 311 µM)	4 µg/mL (≈ 4.86 µM)	8 µg/mL (≈ 9.72 µM)	8 µg/mL (≈ 9.72 µM)	8 µg/mL (≈ 9.72 µM)	4 µg/mL (≈ 4.86 µM)	4 µg/mL (≈ 4.86 µM)	MIC [4]: > 256 µg/mL; MIC [7]: 4 µg/mL (≈ 4.86 µM); MIC [12]: 4 µg/mL (≈ 4.86 µM); MIC (Acinetobacter baumannii [23]): 8 µg/mL (≈ 9.72 µM); MIC (Acinetobacter baumannii [24]): 8 µg/mL (≈ 9.72 µM); MIC [25]: 256 µg/mL (≈ 311 µM)
COLISTIN	1 µg/mL	0.5 µg/mL	1 µg/mL	1 µg/mL	0.5 µg/mL	1 µg/mL	0.5 µg/mL	0.5 µg/mL	0.5 µg/mL	0.5 µg/mL	0.5 µg/mL	1 µg/mL	1 µg/mL	0.5 µg/mL	1 µg/mL	1 µg/mL	0.5 µg/mL	0.5 µg/mL	0.5 µg/mL	0.5 µg/mL	MIC [4]: 1 µg/mL; MIC [7]: 1 µg/mL; MIC [27]: 1 µg/mL; MIC (Acinetobacter baumannii [23]): 1 µg/mL; MIC (Acinetobacter baumannii [24]): 1 µg/mL; MIC [28]: 1 µg/mL
GENTAMICIN	> 256 µg/mL	> 256 µg/mL	> 256 µg/mL	> 256 µg/mL	> 256 µg/mL	4 µg/mL	> 256 µg/mL	> 256 µg/mL	> 256 µg/mL	> 256 µg/mL	> 256 µg/mL	> 256 µg/mL	> 256 µg/mL	> 256 µg/mL	> 256 µg/mL	> 256 µg/mL	> 256 µg/mL	> 256 µg/mL	> 256 µg/mL	> 256 µg/mL	MIC [27]: 1 µg/mL; MIC (Acinetobacter baumannii [23]): 1 µg/mL; MIC (Acinetobacter baumannii [24]): > 256 µg/mL; MIC [28]: > 256 µg/mL
